2 molecules from patent US12617818B2, “Compositions and methods for modulating myosin subfragment-2 coiled coil stability and methods for using them” (UNIVERSITY OF NORTH TEXAS, priority 2020, dated 2026) can be followed below.

Each structure is given as a SMILES string.

For this assay, the system named is rabbit skeletal muscle myofibrils. Nature of the assay: Myofibrillar contractility assays (20 μL myofibril drop, 18 mM ATP added). In kind it is biochemical. To be noted: for % Contraction of imaged myofibril (FIG. 55, 56): after ATP; for IC50: read-out: IC-50 Value (50 percent of the reduction in percent contractility). The method, then:
Propionic acid, imidazole, and Mg(C2H3O2)2 were purchased from Sigma-Aldrich (St. Louis, MO). Boric Acid and KOH were purchased (EM Industries, Gibbstown, NJ). CaCl2) were purchased from Avantor (Center Valley, PA). We used myofibrils previously extracted and prepared from rabbit skeletal muscle as described by Duong and Reisler (1989). Afterwards, we stored the myofibril suspension with glycerol in a 1:1 ratio at −10° C.
We created a buffer solution with 2.2 mM Mg(C2H3O2)2, 10 mM imidazole, 130 mM propionic acid, 0.1 mM CaCl2) and titrated the solution with 10 M KOH until the pH reached 7. We decided to combine these chemicals and target a pH of 7 in order to simulate regular cell conditions for the myofibrils.
We began by extracting 50 mg of the myofibril suspension and adding 1 mL of our buffer into a 2 mL microcentrifuge tube. Next, we centrifuged the tube three times at 5000 RPM for 5 minutes on an IEC Micromax microcentrifuge, thereby isolating the denser myofibril from the lighter glycerol and unnecessary cellular constituents. After each centrifugation, we disposed of the supernatant and filled the microcentrifuge tube to 1 mL again with our buffer. Furthermore, we used a Fisher Vortex Genie 2™ to dislodge the pellet from the bottom of the microcentrifuge tube, making the next centrifugation effective. Following the series of centrifugations, we stored the myofibrils with the buffer in a 4° C. fridge to maintain their biological function. Every 2 days, we prepared new myofibrils with the method described above because previous batches of myofibril would be subject to rigor mortis: muscle death where myofibrils are indefinitely contracted.
A myofibrillar contractility assay tests the effect of certain chemical compounds on myofibril contraction. The assay involves the interaction of myofibrils with ATP, and we measured sarcomere length before and after the addition of ATP to determine percent contractility of myofibrils.
We created an apparatus for myofibrillar contractility assays by attaching a coverslip to a modified petri dish using electrical tape. Each coverslip used on the apparatus can run three assays total. We placed the apparatus on a ZEISS IM35™ inverted microscope equipped with a CANON POWERSHOT A510™ connected to one of the microscope's ocular lenses. Our apparatus allowed us to precisely adjust the field of view of the microscope, enabling efficient and quality imaging (FIG. 8).
To run an assay, we first placed a 20 μL drop of our prepared myofibrils onto the coverslip. Then, we added chemical modifiers (peptides and antibodies) to each droplet as needed and used a CARL ZEISS PLAN 40/0.65 160/0.17™ objective lens to focus on the myofibrils with the microscope. Since the antibodies have a much larger molecular mass than the peptides, we determined that the antibodies would also require a longer period of time to diffuse throughout the myofibril droplet. We allowed the antibodies a minimum of 5 minutes to diffuse into the myofibril solution while we gave peptide modifiers 30 seconds to settle into the solution.
These myofibrils would be likely to show evidence of contraction when they interacted with the ATP in the assay. We photographed the chosen myofibril before the addition of ATP. Then, we pipetted 2 μL of 18 mM ATP on the myofibril droplet, and we typically observed a visible contraction within 30 seconds. We needed to carefully watch the camera screen when adding the ATP because the addition of ATP solution onto the drop or the motion of the myofibril as it contracted would occasionally displace the myofibril. If the myofibril moved, we adjusted our field of view accordingly so that the myofibril was visible once again.
After the contraction concluded, we re-imaged the myofibril to compare the current sarcomere length with the initial sarcomere length. […]

For the molecule `CSCC[C@H](NC(=O)[C@H](CCC(=O)O)NC(=O)[C@H](CCCNC(=N)N)NC(=O)[C@H](CCC(=O)O)NC(=O)[C@H](CC(=O)O)NC(=O)[C@H](CCC(=O)O)NC(=O)[C@H](CC(C)C)NC(=O)[C@H](CCCNC(=N)N)NC(=O)[C@H](CCC(=O)O)NC(=O)[C@H](CC(N)=O)NC(=O)[C@H](CCSC)NC(=O)[C@@H](N)CCC(=O)O)C(=O)N[C@@H](CCCCN)C(=O)N[C@@H](C)C(=O)N[C@@H](CCC(=O)O)C(=O)N[C@@H](CC(C)C)C(=O)N[C@H](C(=O)N[C@@H](C)C(=O)N[C@@H](CCCCN)C(=O)O)[C@@H](C)O` [Destabilizer], the IC50 is 12 ± 6 nM. Under “20 nM”, the “% Contraction” value is reported as 21 ± 3%, the “After (sarcomere length after ATP)” value was 1.7 μm and the “Before (sarcomere length before ATP)” value is listed as 2.2 μm. Also, where the note is “40 nM”, the “% Contraction” value turned out to be 25 ± 8%; the “After (sarcomere length after ATP)” value is given as 1.7 μm; the “Before (sarcomere length before ATP)” value was found to be 2.2 μm; the “% Contraction of imaged myofibril (FIG. 55, 56)” value came to 30%. Besides, for the setting “80 nM”, the “% Contraction” value turned out to be 32 ± 4%, the “After (sarcomere length after ATP)” value was 1.5 μm and the “Before (sarcomere length before ATP)” value is 2.3 μm. Also, for the setting “200 nM”, the “% Contraction” value was 35 ± 7%, the “After (sarcomere length after ATP)” value is given as 1.5 μm and the “Before (sarcomere length before ATP)” value was 2.3 μm. The “induction of contraction compared to control group” value (high concentrations) is recorded as “more than two-fold”. Besides, the EC50 (read-out: EC-50 value (50 percent of the increase in percent contraction)) came out at 8 ± 4 nM.

For the molecule `C[C@H](NC(=O)[C@H](CCCCN)NC(=O)[C@H](Cc1ccccc1)NC(=O)[C@H](CCCCN)NC(=O)[C@H](CCCCN)NC(=O)[C@H](CCCCN)NC(=O)[C@H](CCCCN)NC(=O)[C@H](CCCCN)NC(=O)[C@H](CCCCN)NC(=O)[C@H](CCCCN)NC(=O)[C@@H](N)CCCCN)C(=O)N[C@@H](CCCCN)C(=O)N[C@@H](CCCCN)C(=O)N[C@@H](CCCCN)C(=O)N[C@@H](CCCCN)C(=O)N[C@@H](CCCCN)C(=O)N[C@@H](CCCCN)C(=O)O` [Stabilizer], the IC50 came to 68 ± 27 nM. Under “10 nM”, the “% Contraction” value is 12 ± 2%, the “After (sarcomere length after ATP)” value is given as 1.9 μm and the “Before (sarcomere length before ATP)” value stood at 2.1 μm. Moreover, under “40 nM”, the “% Contraction” value is reported as 10 ± 1%; the “After (sarcomere length after ATP)” value was 1.9 μm; the “Before (sarcomere length before ATP)” value is recorded as 2.2 μm; the “% Contraction of imaged myofibril (FIG. 55, 56)” value came out at 11%. Under “80 nM”, the “% Contraction” value is 9 ± 2%, the “After (sarcomere length after ATP)” value turned out to be 2.0 μm and the “Before (sarcomere length before ATP)” value came to 2.2 μm. For the same molecule, where the note is “200 nM”, the “% Contraction” value stood at 8 ± 1%, the “After (sarcomere length after ATP)” value is recorded as 2.0 μm and the “Before (sarcomere length before ATP)” value is reported as 2.2 μm.
